For orientation: ED50 means the midpoint of the dose-response relation. Low values mean an effect at a small dose, high ones a need for a large dose.

Data on two molecules can be found in EP0023083A1, “Oxodiazole derivatives, processes for their production and pharmaceutical composition containing them” (BEECHAM GROUP PLC, priority 1979, dated 1981).

The test system of this assay is 5-hydroxy tryptamine induced bronchoconstriction. In words: Bronchodilator activity: inhibition of 5-hydroxy tryptamine induced bronchoconstriction (Konzett-Rossler preparation). It counts as in vivo. The following applies: Cavia porcellus, iv; anaesthetised, artificially respired guinea pig. On the procedure:
The compounds were examined for their ability to inhibit 5-hydroxy tryptamine induced bronchoconstriction in the anaethetised, artifically respired guinea pig (Konzett-Rossler preparation). The compounds were administered intravenously.

Molecule `CCCCCCC(C)(O)CCN1C(=O)N(C)C(=O)C1CCCCCCCC(C)O` (centres unmarked) [Compound 2] displayed an ED50 of 5.5 µg/kg. Under `CCCCCCC(C)(O)CCN1C(=O)N(C)C(=O)C1C/C=C\CCCCC(C)O` (centres unmarked) [Compound 3] stands 3.6 µg/kg.
